Assay results as given in patent US9102637B2, “Bicyclic thiazole compounds” (CARNA BIOSCIENCES INC., priority 2013, dated 2015).

Key:
[1] = target: human TNIK (N-terminal segment, TNIK_N, residues 1-314) (Homo sapiens (Human), UniProt Q9UKE5); test: TNIK kinase assay (mobility shift); assay type: biochemical; settings: TNIK_N kinase activity, 25 μM ATP, 1 h at room temperature
Procedure, shortened: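 GST-tagged human TNIK residues 1-314 (Sf21 baculovirus) at 0.08 ng/μl phosphorylated 1 μM FITC-peptide with 25 μM ATP. Buffer: 20 mM Hepes pH 7.5, 5 mM MgCl2, 2 mM DTT, 1% DMSO; 1 h at room temperature, stopped with EDTA. Mobility-shift detection; activity = P/(P+S).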

[2] = tested on: human colon cancer cell line HCT-116; test: In vitro cell proliferation assay; assay type: cell-based; settings: HCT-116 cell number, 72 hours of treatment
Procedure: In Vitro Cell Proliferation Assay
The human colon cancer cell line HCT-116 was seeded at 600 cells/well in 96 well-plate (ThermoFisher) using RPMI medium containing 2 mM L-glutamine (Invitrogen) supplemented with 10% FCS (Invitrogen) and 1% penicillin/streptomycin (Sigma) and maintained at 37° C., 5% CO2 and 100% humidity. The following day, old medium was withdrawn and the fresh medium was added. Initial numbers of cells were counted before adding compounds. Then cells were treated in duplicates with compounds (a half-logarithmic serial dilution from 10 μM). Eight untreated control wells were incubated in each plate. After 72 hours of treatment, cells were fixed with 2% paraformaldehyde, and the nucleus were stained with Hoechst 33258 (Invitrogen). The numbers of cells were counted with ArrayScan™ VTI (ThermoFisher Scientific).

Sequence of human TNIK (N-terminal segment, TNIK_N, residues 1-314) (Q9UKE5 1-314): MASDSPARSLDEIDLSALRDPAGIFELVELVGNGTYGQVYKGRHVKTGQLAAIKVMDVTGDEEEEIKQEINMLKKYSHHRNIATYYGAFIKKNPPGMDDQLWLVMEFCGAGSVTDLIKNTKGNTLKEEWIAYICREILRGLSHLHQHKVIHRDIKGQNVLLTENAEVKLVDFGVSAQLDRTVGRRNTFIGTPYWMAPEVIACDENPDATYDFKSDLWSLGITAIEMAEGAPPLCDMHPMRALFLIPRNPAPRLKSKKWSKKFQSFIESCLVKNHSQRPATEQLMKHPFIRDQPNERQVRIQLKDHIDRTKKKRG

| IC50 [1] [µM] | IC50 [2] [µM] | SMILES |
| --- | --- | --- |
| 0.0198 | < 0.1 | CC(=O)Nc1ccc(C(=O)Nc2sc(Nc3ccc4ccccc4c3)nc2C(N)=O)cc1 [Example 2, 5-(4-acetamidobenzamido)-2-(naphthalen-2-ylamino)thiazole-4-carboxamide] |
| 0.0227 | 0.1 to 1 | NC(=O)c1nc(Nc2ccc3ccccc3c2)sc1NC(=O)c1cc2sccc2[nH]1 [Example 35, N-[4-carbamoyl-2-(naphthalen-2-ylamino)thiazol-5-yl]-4H-thieno[3,2-b]pyrrole-5-carboxamide] |
| 0.0041 | 1 to 10 | CN1CCN(c2ccc(C(=O)Nc3sc(Nc4ccc5ncccc5c4)nc3C(N)=O)cc2)CC1 [Example 24, 5-[4-(4-methylpiperazin-1-yl)benzamido]-2-(quinolin-6-ylamino)thiazole-4-carboxamide] |
| 0.0102 | 0.1 to 1 | CN1CCN(c2ccc(C(=O)Nc3sc(Nc4ccc5ccccc5c4)nc3C(N)=O)cc2)CC1 [Example 12, 5-[4-(4-methylpiperazin-1-yl)benzamido]-2-(naphthalen-2-ylamino)thiazole-4-carboxamide] |
| 0.0051 | < 0.1 | CN1CCN(Cc2ccc(C(=O)Nc3sc(Nc4ccc5ccccc5c4)nc3C(N)=O)cc2)CC1 [Example 17, 5-{4-[(4-methylpiperazin-1-yl)methyl]benzamido}-2-(naphthalen-2-ylamino)thiazole-4-carboxamide] |
| 0.0086 | < 0.1 | NC(=O)c1nc(Nc2ccc3ccccc3c2)sc1NC(=O)c1ccc(CN2CCOCC2)cc1 [Example 18, 5-[4-(morpholinomethyl)benzamido]-2-(naphthalen-2-ylamino)thiazole-4-carboxamide] |
| 0.0106 | < 0.1 | NC(=O)c1nc(Nc2ccc3ccccc3c2)sc1NC(=O)c1ccc(NCCO)cc1 [Example 10, 5-[4-(2-hydroxyethylamino)benzamido]-2-(naphthalen-2-ylamino)thiazole-4-carboxamide] |
| 0.008 | < 0.1 | NC(=O)c1nc(Nc2ccc3ccccc3c2)sc1NC(=O)c1ccc(NCCN2CCCCC2)cc1 [Example 13, 2-(naphthalen-2-ylamino)-5-{4-[2-(piperidin-1-yl)ethylamino]benzamido}thiazole-4-carboxamide] |
| 0.0191 | 1 to 10 | CN1CCN(c2ccc(C(=O)Nc3sc(Nc4cccc5cccnc45)nc3C(N)=O)cc2)CC1 [Example 27, 5-[4-(4-methylpiperazin-1-yl)benzamido]-2-(quinolin-8-ylamino)thiazole-4-carboxamide] |
| 0.017 | 0.1 to 1 | CN1CCN(c2ccc(C(=O)Nc3sc(N(C)c4ccc5ncccc5c4)nc3C(N)=O)cc2)CC1 [Example 28, 2-[methyl(quinolin-6-yl)amino]-5-[4-(4-methylpiperazin-1-yl]benzamido)thiazole-4-carboxamide] |
| 0.0363 | 1 to 10 | CN1CCN(c2ccc(C(=O)Nc3sc(N(C)c4ccc5ccccc5c4)nc3C(N)=O)cc2)CC1 [Example 65, 2-[methyl(naphthalen-2-yl)amino]-5-[4-(4-methyl-piperazin-1-yl)benzamido]thiazole-4-carboxamide] |
| 0.0053 | 0.1 to 1 | NCc1ccc(C(=O)Nc2sc(Nc3ccc4ccccc4c3)nc2C(N)=O)cc1 [Example 23, 5-(4-aminomethylbenzamido)-2-(naphthalen-2-yl-amino)thiazole-4-carboxamide] |
| 0.012 | 0.1 to 1 | NC(=O)c1nc(Nc2ccc3cnccc3c2)sc1NC(=O)c1ccsc1 [Example 46, 2-(isoquinolin-6-ylamino)-5-(thiophene-3-carbox-amido)thiazole-4-carboxamide] |
| 0.0025 | < 0.1 | NC(=O)c1nc(Nc2ccc3ccccc3c2)sc1NC(=O)c1ccc(Cn2cncn2)cc1 [Example 195, 5-{4-[(1H-1,2,4-triazol-1-yl)methyl]benzamido}-2-(naphthalen-2-ylamino)thiazole-4-carboxamide] |
| 0.0086 | < 0.1 | CN(C)CCNc1ccc(C(=O)Nc2sc(Nc3ccc4ccccc4c3)nc2C(N)=O)cc1 [Example 11, 5-{4-[2-(dimethylamino)ethylamino]benzamido}-2-(naphthalen-2-ylamino)thiazole-4-carboxamide] |
| 0.0127 | < 0.1 | NC(=O)c1nc(Nc2ccc3ccccc3c2)sc1NC(=O)c1ccc(N2CCC(O)CC2)cc1 [Example 97, 5-[4-(4-hydroxypiperidin-1-yl)benzamido]-2-(naphthalen-2-ylamino)thiazole-4-carboxamide] |
| 0.003 | < 0.1 | NC(=O)c1nc(Nc2ccc3ccccc3c2)sc1NC(=O)c1ccc(Cn2ccnc2)cc1 [Example 208, 5-{4-[(1H-imidazol-1-yl)methyl]benzamido}-2-(naphthalen-2-ylamino)thiazole-4-carboxamide] |
| 0.0203 | < 0.1 | NC(=O)c1nc(Nc2ccc3ccccc3c2)sc1NC(=O)c1ccc(N)cc1 [Example 16, 5-(4-aminobenzamido)-2-(naphthalen-2-ylamino) thiazole-4-carboxamide] |
| 0.0127 | 1 to 10 | CC(C)=CC(=O)Nc1sc(Nc2ccc3ccccc3c2)nc1C(N)=O [Example 83, 5-(3-methylbut-2-enamido)-2-(naphthalen-2-yl-amino)thiazole-4-carboxamide] |
| 0.0156 | 1 to 10 | CN1CCN(c2ccc(C(=O)Nc3sc(Nc4cccc5ncccc45)nc3C(N)=O)cc2)CC1 [Example 26, 5-[4-(4-methylpiperazin-1-yl)benzamido]-2-(quinolin-5-ylamino)thiazole-4-carboxamide] |
| 0.0059 | < 0.1 | NC(=O)c1nc(Nc2ccc3ccccc3c2)sc1NC(=O)c1ccc(Cn2cnnn2)cc1 [Example 205, 5-(4-[(1H-tetrazol-1-yl)methyl)benzamido]-2-(naphthalen-2-ylamino)thiazole-4-carboxamide] |
| – | < 0.1 | NC(=O)c1nc(Nc2ccc3ccccc3c2)sc1NC(=O)c1ccc(NC(=O)CO)cc1 [Example 21, 5-[4-(2-hydroxyacetamido)benzamido]-2-(naphthalen-2-ylamino)thiazole-4-carboxamide] |
